# In patent US11878995B2, “Oxysterols and methods of use thereof” (SAGE THERAPEUTICS, INC., priority 2016, dated 2024):
# Molecular target: T1, GlunN1/GluN2A glutamate receptors (Homo sapiens, UniProt Q05586+Q12879)
# T1 construct: expressed in transfected cells
# Experiment: Whole-cell patch clamp of mammalian cells (Ionworks Barracuda), NMDA potentiation
# Format: cell-based
# Details: 3 μM compound; HEK293 cells expressing human GRIN1/GRIN2A; co-application with EC20 L-glutamate and 30 μM glycine
# Description: NMDA potentiation was assessed using either whole cell patch clamp of mammalian cells which expressed NMDA receptors.
# Whole-Cell Patch Clamp of Mammalian Cells (Ionworks Barracuda (IWB))
# The whole-cell patch-clamp technique was used to investigate the effects of compounds on GlunN1/GluN2A glutamate receptors expressed in mammalian cells.
# HEK293 cells were transformed with adenovirus 5 DNA and transfected with cDNA encoding the human GRIN1/GRIN2A genes. Stable transfectants were selected using G418 and Zeocin-resistance genes incorporated into the expression plasmid and selection pressure maintained with G418 and Zeocin in the medium. Cells were cultured in Dulbecco's Modified Eagle Medium/Nutrient Mixture (D-MEM/F-12) supplemented with 10% fetal bovine serum, 100 μg/ml penicillin G sodium, 100 μg/ml streptomycin sulphate, 100 μg/ml Zeocin, 5 μg/ml blasticidin and 500 μg/ml G418.
# Test article effects were evaluated in 8-point concentration-response format (4 replicate wells/concentration). […]
# • a) Intracellular solution (mM): 50 mM CsCl, 90 mM CsF, 2 mM MgCl2, 5 mM EGTA, 10 mM HEPES. […] Cell suspension will be pipetted into the wells (9 μL per well) of the PPC planar electrode. • b) Whole-cell recording configuration will be established via patch perforation with membrane currents recorded by on-board patch clamp amplifiers. • c) Two recordings (scans) will be performed. […]
# T1 sequence (Q12879 23-1464, other chains not shown): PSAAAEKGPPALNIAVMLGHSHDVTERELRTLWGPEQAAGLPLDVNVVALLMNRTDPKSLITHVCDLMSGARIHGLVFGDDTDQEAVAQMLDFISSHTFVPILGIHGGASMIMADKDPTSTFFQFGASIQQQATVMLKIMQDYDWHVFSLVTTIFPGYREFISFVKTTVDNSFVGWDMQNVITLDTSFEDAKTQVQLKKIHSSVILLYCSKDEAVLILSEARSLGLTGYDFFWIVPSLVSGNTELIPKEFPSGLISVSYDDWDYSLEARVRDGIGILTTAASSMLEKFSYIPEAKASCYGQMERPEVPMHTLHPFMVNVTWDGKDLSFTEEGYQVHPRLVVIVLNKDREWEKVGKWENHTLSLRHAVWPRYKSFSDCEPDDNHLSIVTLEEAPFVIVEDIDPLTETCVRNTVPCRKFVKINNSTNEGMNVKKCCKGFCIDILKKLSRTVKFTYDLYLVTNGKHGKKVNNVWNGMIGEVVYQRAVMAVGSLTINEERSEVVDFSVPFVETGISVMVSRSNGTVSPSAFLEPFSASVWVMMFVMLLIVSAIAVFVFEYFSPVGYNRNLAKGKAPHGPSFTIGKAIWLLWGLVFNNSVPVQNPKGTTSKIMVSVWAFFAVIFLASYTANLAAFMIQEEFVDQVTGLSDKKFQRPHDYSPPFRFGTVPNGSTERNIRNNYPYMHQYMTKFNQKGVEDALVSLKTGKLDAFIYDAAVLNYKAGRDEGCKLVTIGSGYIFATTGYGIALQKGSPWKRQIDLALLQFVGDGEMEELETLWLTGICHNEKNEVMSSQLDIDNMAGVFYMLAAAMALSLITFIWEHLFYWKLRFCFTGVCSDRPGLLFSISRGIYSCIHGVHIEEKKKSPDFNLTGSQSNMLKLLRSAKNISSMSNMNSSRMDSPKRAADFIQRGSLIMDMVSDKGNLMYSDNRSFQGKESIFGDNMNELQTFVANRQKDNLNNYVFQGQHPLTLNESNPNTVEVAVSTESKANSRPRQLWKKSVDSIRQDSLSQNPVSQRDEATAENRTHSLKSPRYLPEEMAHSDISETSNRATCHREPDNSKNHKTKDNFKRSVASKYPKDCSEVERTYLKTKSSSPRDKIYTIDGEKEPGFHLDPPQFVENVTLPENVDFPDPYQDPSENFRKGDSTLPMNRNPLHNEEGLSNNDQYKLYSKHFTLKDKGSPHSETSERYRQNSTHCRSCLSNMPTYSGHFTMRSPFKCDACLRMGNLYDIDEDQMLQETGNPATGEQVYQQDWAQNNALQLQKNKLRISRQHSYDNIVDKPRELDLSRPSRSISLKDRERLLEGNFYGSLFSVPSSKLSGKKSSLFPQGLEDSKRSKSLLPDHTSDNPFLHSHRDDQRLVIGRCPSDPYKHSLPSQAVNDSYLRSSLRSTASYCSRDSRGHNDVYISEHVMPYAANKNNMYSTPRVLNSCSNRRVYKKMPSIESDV
structure (smiles),measurement,value
[2H]C(O)(CC[C@@H](C)[C@H]1CC[C@H]2[C@@H]3CC=C4C[C@]([2H])(O)CC[C@]4(C)[C@H]3CC[C@]12C)C(C)C (stereo partly shown) [Compound 7],GluN2A PCA IWB Ephys % potentiation at 3 μM,C (“C” indicates potentiation of >150% to 225%)
